Activity calls are given as the source filed them.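 The calls were made as follows: active = caspase luminescence falls with dose and the half-maximal concentration AC50 from the fitted curve is at or below a set limit; inconclusive = flat fit at 30 to 70% signal loss, or invalid fit; inactive = AC50 above the limit, or signal rises instead.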
tested on: INS-1E cytokine-induced caspase-3/7, Caspase-Glo luminescence, 48 h; test: inhibitors of cytokine-induced caspase-3/7 activity, dose response, orthogonal assay for beta-cell apoptosis protection project, INS-1E rat cells, luminescence (AID 463206)

Row | SMILES | AC50
1 | C/C(=N\Nc1nc2ccccc2[nH]1)c1ccccn1 | > 26 µM (inactive)
2 | CC1CCN(Cc2c(C(=O)N/N=C/c3cc(Br)ccc3O)nnn2-c2nonc2N)CC1 | > 26 µM (inactive)
3 | O=C(N/N=C/c1cc([N+](=O)[O-])ccc1O)c1cc(-c2ccccc2)nc2ccccc12 | > 26 µM (inactive)
4 | CCOc1ccc(S(=O)(=O)N2CCCCC2)cc1NC(=O)CN1CCCC1c1cccs1 (stereo not given) | > 26 µM (inactive)
5 | Clc1cccc(N=C2NN=C(c3ccc4c(c3)OCCO4)CS2)c1 | > 26 µM (inactive)
6 | CCN(CC)c1ccc(/C=N/NC(=O)c2cccc(S(=O)(=O)Nc3ccccc3OC)c2)c(O)c1 | > 26 µM (inactive)
7 | CC[C@H]1CN2CCc3cc(OC)c(OC)cc3[C@@H]2C[C@@H]1C[C@H]1NCCc2cc(OC)c(OC)cc21 | > 26 µM (inactive)
8 | CCN1CCN(c2ccc(S(=O)(=O)N3CCCCC3)cc2NC(=O)c2ccc([N+](=O)[O-])o2)CC1 | > 26 µM (inactive)
9 | CCC(=O)N1c2ccc(S(=O)(=O)N3CCN(c4ccc([N+](=O)[O-])cc4)CC3)cc2CC1C (stereo not given) | > 26 µM (inactive)
10 | C[C@H]1CCC/C=C/[C@@H]2C[C@H](O)C[C@H]2[C@H](O)/C=C/C(=O)O1 | > 26 µM (inactive)
11 | COc1ccc(CCNc2ncnc3sc(C)cc23)cc1OC | > 26 µM (inactive)
12 | CCn1c(NN=O)nc2ccccc21 | > 26 µM (inactive)
13 | CCCCC(=O)NC(c1ccco1)c1cc(Cl)c2cccnc2c1O (stereo not given) | > 26 µM (inactive)
14 | C/C(=N\N1C(=O)c2ccccc2NC1c1ccco1)c1ccccc1O (stereo not given) | > 26 µM (inactive)
15 | O=C(N/N=C\c1c(O)ccc2ccccc12)c1ccc(Cn2cccn2)o1 | > 26 µM (inactive)
16 | c1csc(-c2csc3ncnc(NCCCN4CCOCC4)c23)c1 | > 26 µM (inactive)
17 | C#CCOCCOCCOCCNc1nc(N2CCN(C(=O)CCCCCCCCCCNC(=O)[C@H](CCCCN)n3cc(C)nn3)CC2)nc(N2CCN(C(=O)CCCCCCCCCCNC(=O)[C@@H]([C@H](C)CC)n3cc(CCCCCN)nn3)CC2)n1 | > 26 µM (inactive)
18 | c1ccc(-c2nc(NCc3ccco3)c3ccccc3n2)nc1 | > 26 µM (inactive)
19 | Cc1cccc(NC(=O)c2ccc([N+](=O)[O-])s2)c1C | > 26 µM (inactive)
20 | CCOc1cc(/C=C2\COc3ccccc3C2=O)cc(Br)c1OCC(=O)N(C)C | > 26 µM (inactive)
21 | O=C(N/N=C/c1sc2ccccc2c1O)c1cccc2ccccc12 | > 26 µM (inactive)
22 | Cc1cc(N2CCOCC2)nc(N)n1 | > 26 µM (inactive)
23 | CCN(CC)S(=O)(=O)c1cc([N+](=O)[O-])ccc1NNC(=O)Nc1ccc(Cl)c(Cl)c1 | > 26 µM (inactive)

Row | SMILES | AC50
24 | CCN(CC)S(=O)(=O)c1ccc(Cl)c(C(=O)Nc2ccc(Cl)cc2[N+](=O)[O-])c1 | > 26 µM (inactive)
25 | CC1Cc2cc(S(=O)(=O)N3CCC(C(=O)N4CCN(c5ccccc5F)CC4)CC3)ccc2N1C(=O)C1CC1 (stereo not given) | > 26 µM (inactive)
26 | Clc1ccc(OCCN2CCN(c3ncnc4sccc34)CC2)cc1 | > 26 µM (inactive)
27 | O=C1C=C(c2cccs2)C[C@H](c2ccccc2)[C@H]1n1nnc([N+](=O)[O-])n1 | > 26 µM (inactive)
28 | CCN(CC)c1ccc(/C=N/NC(=O)c2nnn(-c3nonc3N)c2C(C)C)c(O)c1 | > 26 µM (inactive)
29 | O=C(NCc1ccncc1)c1cc(-c2ccc(Cl)cc2)oc1C(F)(F)F | > 12 µM (inactive)
30 | C#CCOCCOCCOCCNc1nc(N2CCN(C(=O)CCCCCCCCCCNC(=O)[C@H](CCCCN)n3cc(C)nn3)CC2)nc(N2CCN(C(=O)CCCCCCCCCCNC(=O)[C@H](CCCN=C(N)N)n3cc(C[C@@H](C)CC)nn3)CC2)n1 | > 26 µM (inactive)
31 | COc1ccc(C)cc1Nc1n[n+](-c2ccccc2)c(-c2ccc(OC)c(OC)c2OC)s1 | > 26 µM (inactive)
32 | COC(=O)c1ccc(COc2ccccc2/C=C(\C#N)C(=O)Nc2c(C)cccc2C)cc1 | > 26 µM (inactive)
33 | CCOC(=O)c1cnc(-n2nc(C)cc2C)nc1NC(C)c1ccccc1 (stereo not given) | > 12 µM (inactive)
34 | CN1N=C(C(C)(C)C)CSC1=Nc1ccccc1 | > 26 µM (inactive)
35 | Cc1ccc(-c2cc(-c3ccc(C)cc3)[n+](-c3ccc(C(=O)[O-])cc3)c(-c3ccc(C)cc3)c2)cc1 | > 26 µM (inactive)
36 | c1ccc(-c2nc3nonc3nc2-c2ccccc2)cc1 | > 26 µM (inactive)
37 | FC(F)(F)c1nnc2c(Sc3ccccc3)nc3ccc(Cl)cc3n12 | > 26 µM (inactive)
38 | O=C(Nc1ccc(OC(F)(F)F)cc1)Nc1cccc([N+](=O)[O-])c1 | > 26 µM (inactive)
39 | CN1/C(=C\C=C2/SC(=S)NC2=O)C(C)(C)c2ccccc21 | > 26 µM (inactive)
40 | COc1ccc(-c2sc3ccccc3c2-c2ccc(OCCN(C)C)cc2)cc1 | > 12 µM (inactive)
41 | Oc1c(CN2CCN(c3ccc(F)cc3)CC2)cc(Cl)c2cccnc12 | > 26 µM (inactive)
42 | CCCCC(=O)NC(c1ccc(Cl)cc1)c1ccc2cccnc2c1O (stereo not given) | > 12 µM (inactive)
43 | COC(=O)c1ccccc1NC1=C/C(=N\S(=O)(=O)c2cccs2)c2ccccc2C1=O | > 26 µM (inactive)
44 | O=C(Nc1ccc([N+](=O)[O-])cc1)Nc1nc(-c2ccc(Cl)s2)cs1 | > 26 µM (inactive)
45 | CCOc1ccc(OCc2ccc(C(=O)N/N=C(\C)c3ccccn3)cc2)cc1 | > 26 µM (inactive)

— PubChem BioAssay AID463206 (Broad Institute, 2010)
